# In article PMC5066289, “Pharmacokinetics of anidulafungin during venovenous extracorporeal membrane oxygenation” (Critical Care, 2016):
# “Also recorded” adds a separate entry of the source. Numbered stars: 1 amine (or outer) side, 2 acyl side, 3 side chain; on linkers, the order of the positions; unused ones are H or OH. Bridge positions count the residues as written; N and C are the ends. Square brackets hold non-standard residues; d marks the D form. Peptide text beside a SMILES is read from it. * marks the point of attachment. pTerphenylCO(4''-OnC5H11) = CCCCCOc1ccc(-c2ccc(-c3ccc(C(=O)*)cc3)cc2)cc1; Orn(4R-OH,5R-OH) = O=C([C@H](C[C@@H](O)[C@@H](O)N[*:3])N[*:1])[*:2]; hTyr(3S-OH,4S-OH) = N[C@H](C(=O)O)[C@H](O)[C@@H](O)c1ccc(O)cc1; Pro(3S-OH,4S-Me) = C[C@H]1CN[C@H](C(=O)O)[C@H]1O; Hyp = O=C(O)[C@@H]1C[C@@H](O)CN1
# Columns and labels:
# [1] = Non-compartmental pharmacokinetics of anidulafungin in a critically ill patient on venovenous ECMO (plasma and urine, HPLC); type: in vivo, human
# From the text: Echinocandins are currently considered the first-line treatment for invasive candidiasis (IC) in the intensive care unit (ICU). However, extracorporeal membrane oxygenation (ECMO), a rescue therapy used in patients with severe acute respiratory distress syndrome (ARDS), could alter the pharmacokinetics of certain drugs. We prescribed anidulafungin for suspected IC in a patient with severe ARDS on ECMO and measured the plasma concentrations of the drug using high-performance liquid chromatography (HPLC).
# (§1) A patient was admitted to the ICU with septic shock secondary to peritonitis. The anti-infective treatment was based on surgical source control and broad spectrum antimicrobial therapy, including anidulafungin at usual doses. The patient developed severe ARDS. ECMO with Novalung iLA Activve™ was initiated, maintaining ultraprotective ventilation. Femoral (23 F) and jugular (19 F) cannulas (Novalung™, Germany) were inserted with 4.5 L/min blood flow and 4 L/min gas flow. Urine samples and pre-filter and post-filter blood samples were collected before starting the eight-dose anidulafungin infusion and 0.5, 1, 1.5, 2, 4, 6, 8, and 24 h after the infusion ended.
# A non-compartmental pharmacokinetic analysis was performed using Abbottbase Pharmacokinetic Systems™ (Abbott Laboratories, Illinois, USA). The maximum and trough plasma concentrations (Cmax and Cmin, respectively) were estimated directly from concentration-time data. The area under the plasma concentration-time curve over the 24-h dosing interval (AUC0–24) was estimated using the linear trapezoidal rule for both pre-filter and post-filter data. Clearance (CL) was estimated as dose/AUC0–24. The apparent volume of distribution at steady state (Vss) was estimated as the product of CL and mean residence time (MRT).
# [2] = Tolerability of anidulafungin in the patient on ECMO; type: in vivo, human; conditions: single critically ill patient on venovenous ECMO; usual doses
# From the text: as §1
smiles,measurement,setting,value
"CCCCCOc1ccc(-c2ccc(-c3ccc(C(=O)N[C@H]4C[C@@H](O)[C@@H](O)NC(=O)[C@@H]5[C@@H](O)[C@@H](C)CN5C(=O)[C@H]([C@@H](C)O)NC(=O)[C@H]([C@H](O)[C@@H](O)c5ccc(O)cc5)NC(=O)[C@@H]5C[C@@H](O)CN5C(=O)[C@H]([C@@H](C)O)NC4=O)cc3)cc2)cc1 [anidulafungin] ({pTerphenylCO(4''-OnC5H11)}-[Orn(4R-OH,5R-OH)]T[Hyp][hTyr(3S-OH,4S-OH)]T[Pro(3S-OH,4S-Me)]; lactam 1-C)",Clearance (CL),"[1]; single patient on venovenous ECMO, non-compartmental, dose/AUC0-24",0.933 L/h
same,Apparent volume of distribution at steady state (Vss),"[1]; single patient on venovenous ECMO, non-compartmental, product of CL and MRT",18.9 L
same,Urine anidulafungin concentrations,"[1]; single patient on venovenous ECMO, urine samples over 24 h, HPLC, limit of detection 0.05 mg/L",negligible; also recorded: very low and close to the limit of detection
same,Trough plasma concentration (Cmin),"[1]; single patient on venovenous ECMO, usual doses, eighth dose, plasma, HPLC, estimated directly from concentration-time data",2190 ng/mL
same,Maximum plasma concentration (Cmax),"[1]; single patient with severe ARDS on venovenous ECMO, anidulafungin infusion at usual doses, sampled around the eighth dose, plasma, HPLC, estimated directly from concentration-time data",13500 ng/mL
same,Tolerability / adverse effects,[2],well tolerated without relevant adverse effects
